Assay [1] in a line: Antiproliferative activity against human A875 cells assessed as inhibition of cell growth incubated for 24 hrs by MTT reagent based ELISA. Format: functional. The conditions noted are these: A875, 24 h. A general note: Tetrazolium assays rely on reduction of a dye to a coloured formazan, in cell work by metabolically active cells.
A further assay concerns SW1353. The assay is described as follows: Antiproliferative activity against human SW1353 cells assessed as inhibition of cell growth incubated for 24 hrs by CellTiter-Glo luminescent assay. Format: functional, cell-based. The conditions noted are these: SW1353, 24 h. (In general: ATP-based viability assays read luminescence as a measure of living cells.)
Assay [2] in a line: Antiproliferative activity against human CAL-78 cells assessed as inhibition of cell growth incubated for 24 hrs by CellTiter-Glo luminescent assay. Format: functional, cell-based. The conditions noted are these: CAL-78, 24 h.
The next assay relates to WM164. In words: Antiproliferative activity against human WM164 cells assessed as inhibition of cell growth incubated for 72 hrs by XTT assay. Format: functional, cell-based. The conditions noted are these: WM164, 72 h.
Assay [3] in a line: Antiproliferative activity against human FS-1 [Human leukemia] cells assessed as inhibition of cell growth incubated for 72 hrs by XTT assay. Format: functional, cell-based.
The test system of the next assay is SBcl2. In words: Antiproliferative activity against human SBcl2 cells assessed as inhibition of cell growth incubated for 72 hrs by XTT assay. Format: functional, cell-based. The following applies: SBcl2, 72 h.
Assay [4] in a line: Antiproliferative activity against human WM9 cells assessed as inhibition of cell growth incubated for 72 hrs by XTT assay. Format: functional, cell-based. The conditions noted are these: WM9, 72 h.
In a further assay the test system is MUGMel2. In words: Antiproliferative activity against human MUG-Mel2 cells assessed as inhibition of cell growth incubated for 72 hrs by XTT assay. Format: functional, cell-based. The conditions noted are these: MUGMel2, 72 h.
Assay [5] can be described thus: Antiproliferative activity against human A875 cells assessed as inhibition of cell growth incubated for 72 hrs by MTT reagent based microplate reader assay. Format: functional. The conditions noted are these: A875, 72 h.
Assay [6] relates to A549. The assay is described as follows: Antiproliferative activity against human A549 cells assessed as inhibition of cell growth incubated for 72 hrs by MTT reagent based microplate reader assay. Format: functional. The following applies: A549, 72 h.
The subject of the next assay is SW872. The assay is described as follows: Antiproliferative activity against human SW872 cells assessed as inhibition of cell growth incubated for 72 hrs by MTT reagent based microplate reader assay. Format: functional. The conditions noted are these: SW872, 72 h.
In another assay the test system is HCT-29. The assay is described as follows: Antiproliferative activity against human HCT-29 cells assessed as inhibition of cell growth incubated for 96 hrs by CCK-8 assay. Format: functional, cell-based. The following applies: HCT-29, 96 h.
In another assay the test system is HCT-8. The assay is described as follows: Antiproliferative activity against human HCT-8 cells assessed as inhibition of cell growth incubated for 96 hrs by CCK-8 assay. The following applies: HCT-8, 96 h. Format: functional, cell-based.
The subject of another assay is DLD-1. The assay is described as follows: Antiproliferative activity against human DLD-1 cells assessed as inhibition of cell growth incubated for 96 hrs by CCK-8 assay. Format: functional, cell-based. The following applies: DLD-1, 96 h.
The test system of another assay is DU-145. In words: Cytotoxicity against human DU-145 cells incubated for 48 hrs by sulforhodamine B staining based spectrophotometric analysis. The conditions noted are these: DU-145, 48 h. Format: functional, cell-based. A general note: The SRB assay estimates cell density from bound dye.
Assay [7] relates to MCF7. The assay is described as follows: Cytotoxicity against human MCF7 cells incubated for 48 hrs by sulforhodamine B staining based spectrophotometric analysis. Format: functional, cell-based. The following applies: MCF7, 48 h.
Assay [8] has as its system MCF7. In words: Cytotoxicity against human MCF7 cells assessed as reduction in cell growth incubated upto 72 hrs by MTT assay. Format: functional, cell-based. The following applies: MCF7, 72 h.
The subject of another assay is MDA-MB-468. The assay is described as follows: Cytotoxicity against human MDA-MB-468 cells assessed as reduction in cell growth incubated upto 72 hrs by MTT assay. Format: functional, cell-based. The following applies: MDA-MB-468, 72 h.
The test system of the next assay is MOLM-14. The assay is described as follows: Cytotoxicity against human MOLM-14 cells incubated for 48 hrs. Format: functional, cell-based. The conditions noted are these: MOLM-14, 48 h.
In a further assay the test system is MV4-11. In words: Cytotoxicity against human MV4-11 cells incubated for 48 hrs. Format: functional, cell-based. The conditions noted are these: MV4-11, 48 h.
The subject of assay [9] is A549. In words: Cytotoxicity against human A549 cells incubated for 72 hrs by MTT assay. Format: functional, cell-based. The following applies: A549, 72 h.
A further assay deals with MDA-MB-435. In words: Cytotoxicity against human MDA-MB-435 cells incubated for 72 hrs by MTT assay. Format: functional, cell-based. The following applies: MDA-MB-435, 72 h.
Another assay relates to HCT-116. In words: Cytotoxicity against human HCT-116 cells incubated for 72 hrs by MTT assay. The following applies: HCT-116, 72 h. Format: functional, cell-based.
The test system of assay [10] is A549. In words: Antiproliferative activity against human A549 cells incubated for 48 hrs by MTT assay. The following applies: A549, 48 h. Format: functional, cell-based.
A further assay has as its system MDA-MB-231. In words: Antiproliferative activity against human MDA-MB-231 cells incubated for 48 hrs by MTT assay. Format: functional, cell-based. The following applies: MDA-MB-231, 48 h.
The next assay has as its system HepG2. The assay is described as follows: Antiproliferative activity against human HepG2 cells incubated for 48 hrs by MTT assay. Format: functional, cell-based. The conditions noted are these: HepG2, 48 h.
In assay [11] the test system is MCF7. In words: Cytotoxicity against human MCF7 cells assessed as inhibition of cell growth incubated for 72 hrs by sulforhodamine B assay. Format: functional, cell-based. The following applies: MCF7, 72 h.
In a further assay the test system is HT-29. In words: Cytotoxicity against human HT-29 cells assessed as inhibition of cell growth incubated for 72 hrs by sulforhodamine B assay. Format: functional, cell-based. The following applies: HT-29, 72 h.
A further assay concerns PC-3. In words: Cytotoxicity against human PC-3 cells assessed as inhibition of cell growth incubated for 72 hrs by sulforhodamine B assay. Format: functional, cell-based. The following applies: PC-3, 72 h.

What is called IC50 is the concentration that gives 50% inhibition.

For the molecule `CC(C)=CC[C@@H](OC(=O)Cc1ccc(Oc2ccccc2)cc1)C1=CC(=O)c2c(O)ccc(O)c2C1=O`, the IC50 in [1] was 1240 nM.

Consider `CC(C)=CC[C@@H](OC(=O)C1CC1)C1=CC(=O)c2c(O)ccc(O)c2C1=O`, for which the IC50 in the assay on SW1353 stood at 1200 nM; in assay [2] it was 2900 nM.

As for `CC(C)=C/C=C/C1=C(C(CC=C(C)C)C2=CC(=O)c3c(O)ccc(O)c3C2=O)C(=O)c2c(O)ccc(O)c2C1=O` (centres undefined), the IC50 is 1700 nM in the assay with WM164; 500 nM in assay [3]; 300 nM in the assay with SBcl2; 600 nM in [4]; 700 nM in the assay on MUGMel2.

Consider `CC(C)=CC[C@@H](OC(=O)/C=C\c1cccc(C(F)(F)F)c1)C1=CC(=O)c2c(O)ccc(O)c2C1=O`, for which the figures for the IC50 (in [5]; with A549 [6]; with SW872) were 650 nM, 1620 nM and 690 nM, respectively.

Turning to `COC(=O)C(CS[C@H](CC=C(C)C)C1=CC(=O)c2c(O)ccc(O)c2C1=O)NC(=O)c1cc(S(C)(=O)=O)ccc1OC` (some centres undefined), the figures for the IC50 in the assay with HCT-29, in the assay on HCT-8 and in the assay on DLD-1 were 3570 nM, 2160 nM and 10000 nM, respectively.

As to `O=C1C(Cl)=C(NCCN2CCN(C3=C(Cl)C(=O)c4ccccc4C3=O)CC2)C(=O)c2ccccc21`, the IC50 amounted to 2520 nM in the assay with DU-145 and 2160 nM in the assay on MCF7 [7].

For `CC1=C(Cl)C(=O)c2c(O)cccc2C1=O`, the IC50 in the assay on MCF7 [8] came to 2000 nM; in the assay with MDA-MB-468, 600 nM.

Take `O=C1C(NCCO)=C(C2=C(NCCO)C(=O)c3ccccc3C2=O)C(=O)c2ccccc21`: the results for the IC50 in the assay on MOLM-14 and in the assay on MV4-11 were 160 nM and 200 nM, respectively.

As to `CC1(C)O[C@H]2[C@@H](O1)[C@@H](Cn1nnc3c1C(=O)c1cccc(O)c1C3=O)O[C@@H]1OC(C)(C)O[C@@H]12`, the values for the IC50 with A549 [9], in the assay with MDA-MB-435 and with HCT-116 were 990 nM, 290 nM and 520 nM, respectively.

Regarding `CC1=C(CCNC(=O)c2ccccc2)C(=O)c2c(O)cccc2C1=O`, the half-inhibitory concentration (IC50) came to 7020 nM in the assay with A549 [10], 6010 nM in the assay with MDA-MB-231 and 7200 nM in the assay on HepG2.

Regarding `CN(C)N1C=C2C[C@@H](O[Si](C)(C)C(C)(C)C)[C@@H]3OC(C)(C)O[C@@H]3[C@H]2C2=C1C(=O)c1c(O)cccc1C2=O`, the half-inhibitory concentration (IC50) in the assay on MCF7 [11] amounted to 16000 nM; in the assay with HT-29 it was 200 nM; in the assay with PC-3, 700 nM.
